Like-named read-outs stand apart in the source and are kept apart here.
What was measured:
dendritic cells = details: Coutanceau et al., 2007; cited from earlier work
[1] = Formalin-induced acute pain model; assay type: in vivo; details: intraperitoneally 60 minutes before formalin, Mycolactone 0.5 mg/kg; for activity against inflammatory pain (global score of pain, late phase 10-40 min): variant 22 5 mg/kg
Protocol: The analgesic properties of Mycolactone and variant 22 were tested in the formalin-induced acute pain model (Encyclopedia of Psychopharmacology, Volume 2, p. 111).
Briefly, Mycolactone and variant 22 were administered intraperitoneally at 0.5 and 5 mg/kg respectively, 60 minutes before the subcutaneous injection of 10 μl of a 5% formalin solution of the right hind-leg. Two negative control groups, injected with PBS (neutral) or ethanol vehicle (vehicle) were tested in the same conditions. A group injected with 3 mg/kg morphin 15 minutes before formalin injection was used as a positive reference.
The time spent in licking/biting and the number of jumps during the early phase (0-5 min) and the late phase (10-40 min) were recorded, as indicators of acute and inflammatory pain, respectively. The graphs in FIG. 5 compare the global score of pain (rank sum of licking/biting time and jump number) in the five groups of animals (Mann-Whitney test on trimmed means; n≧6; *P<0.05 **P<0.01 vs. neutral; # P<0.05, # P<0.01 vs. vehicle.

[2] = tested on: IL-2 production by Jurkat T cells; test: Immunosuppressive activity: activation-induced IL-2 production, ELISA; assay type: cell-based, human; details: for Cytokine production (M.A.: mean absorbance) (C) % relative to control / IC50: Jurkat T cells; for Cytokine production (M.A.: mean absorbance) (C) % relative to control: PMA + calcium ionophore, IL-2 ELISA; for IC50: IL-2, % inhibition relative to control, read-out: Cytokine production (C): IC50 value (concentration at which the compound induces 50% of mycolactone maximal activity); for Cytokine production (C): corresponding % of mycolactone activity (in brackets): relative to mycolactone (100%)
Protocol: (C) The immunosuppressive activity of mycolactone and variants was measured on Jurkat T cells (ATCC®; TIB-152™ clone E6-1), as models of human T lymphocytes. Cells were inoculated in 96-well plates (5×10^5 cells/well in RPMI 1640 medium supplemented with 10% fetal calf serum and 2 mM L-Glutamine) then incubated with serial dilutions of the various compounds for 4 h, and stimulated for 20 h with 50 ng/ml phorbol-12-myristate-13-acetate (PMA) and 1 μg/ml calcium ionophore. The production of IL-2 was then assessed in culture supernatants by ELISA.

[3] = tested on: epithelial HeLa cell line; test: Cytopathic activity, MTT assay (effect on global cell metabolic activity); assay type: cell-based, human; details: for Metabolic activity (MA: mean absorbance) (A) % relative to control / IC50: HeLa cells, 48 h, MTT; for IC50: % inhibition relative to control, read-out: Metabolic activity (A): IC50 value (concentration at which the compound induces 50% of mycolactone maximal activity); for Metabolic activity (A): corresponding % of mycolactone activity (in brackets): relative to mycolactone (100%)
Protocol: (A) The cytopathic activity of mycolactone and variants was assessed in a [3-(4,5-Dimethylthiazol-2-yl)-2,5-Diphenyltetrazolium Bromide] (MTT) assay, using the epithelial HeLa cell line (ATCC®; CCL-2) as a model. Briefly, HeLa cells were plated in 96-well plates (10^4 cells/well) in Dulbecco's Modified Eagle culture medium supplemented with 10% fetal calf serum and 2 mM L-Glutamine. After 16 h, mycolactone or variants dilutions (final concentration 0.4-8 μM) were added to the wells, and incubated with the cells for 48 h, prior to the addition of MTT at 50 μg/ml. After 4 h, culture supernatants were removed and the formed formazan crystals dissolved in dimethyl sulfoxide (DMSO) for absorbance measurement.

T cell trafficking = details: Guenin-Macé et al., 2011; cited from earlier work
macrophages = details: Coutanceau et al., 2005; cited from earlier work
[4] = tested on: CD62-L receptor expression by human peripheral blood cells (PBLs); test: T cell homing: expression of CD62-L receptor, flow cytometry; assay type: cell-based; details: for CD62-L expression (MFI: mean fluorescence intensity) (D) % relative to control / IC50: human PBLs, 72 h; for IC50: % inhibition relative to control, read-out: CD62-L expression (D): IC50 value (concentration at which the compound induces 50% of mycolactone maximal activity); for CD62-L expression (D): corresponding % of mycolactone activity (in brackets): relative to mycolactone (100%)
Protocol: (D) The effect of mycolactone and variants on T cell homing was assessed through their inhibitory effect on the expression of CD62-L receptor by human peripheral blood cells (PBLs). Human PBLs were isolated from total blood by Ficoll density gradient centrifugation. They were incubated in 96-well plates (10^5 cells/well in RPMI 1640 medium supplemented with 10% fetal calf serum and 2 mM L-Glutamine) with mycolactone or variant for 72 h. Cells were then fixed for 20 min in 4% paraformaldehyde (PFA) and stained with an anti-CD62-L antibody coupled with phycoerythrin in a solution of PBS, BSA 0.5%, saponin 0.05%, then analysed by flow cytometry.

HeLa cell = test: Cytotoxicity by Trypan Blue dye exclusion (cell viability); assay type: cell-based, human
Protocol: (B) HeLa cell death being negligible in the concentration and time frame conditions used in (A), the cytotoxicity of 16 μM mycolactone and variants was evaluated after 48 h of incubation by cell exclusion of the Trypan Blue dye. Here, one part of Trypan blue (0.4% in phosphate-buffered saline PBS) was mixed with one part cell suspension (recovered from cell culture wells by trypsin treatment). The mixture was incubated for 3 min at room temperature and unstained (viable) and stained (nonviable) cells counted separately with a hemacytometer.

## Mycolactone [reference compound]
Dendritic cells
  production of chemotactic signals by dendritic cells: inhibits the production of chemotactic signals
[1]
  activity against acute pain (global score of pain, early phase 0-5 min): significant activity
  activity against inflammatory pain (global score of pain, late phase 10-40 min): significant activity
[2]; 0.4 μM
  Cytokine production (M.A.: mean absorbance) (C) % relative to control: 99%
[2]; 4 μM
  Cytokine production (M.A.: mean absorbance) (C) % relative to control: 100%
[2]; 8 μM
  Cytokine production (M.A.: mean absorbance) (C) % relative to control: 100%
[2]
  IC50: 0.1 µM
  Cytokine production (C): corresponding % of mycolactone activity (in brackets): 100%
[2]; at concentrations >0.4 μM
  activation-induced production of IL-2 by human lymphocytes: complete blockade
[3]; 0.4 μM
  Metabolic activity (MA: mean absorbance) (A) % relative to control: 70%
[3]; 4 μM
  Metabolic activity (MA: mean absorbance) (A) % relative to control: 80%
[3]; 8 μM
  Metabolic activity (MA: mean absorbance) (A) % relative to control: 100%
[3]
  IC50: 3.5 µM
  Metabolic activity (A): corresponding % of mycolactone activity (in brackets): 100%
[3]; at concentrations >0.4 μM
  cell viability: markedly reduced cell viability
T cell trafficking
  T cell trafficking in vivo: severely impairs T cell trafficking
macrophages
  release of inflammatory TNF by macrophages: blocks the release of inflammatory TNF
[4]; 0.4 μM
  CD62-L expression (MFI: mean fluorescence intensity) (D) % relative to control: 100%
[4]; 4 μM
  CD62-L expression (MFI: mean fluorescence intensity) (D) % relative to control: 100%
[4]; 8 μM
  CD62-L expression (MFI: mean fluorescence intensity) (D) % relative to control: 100%
[4]; at concentrations >0.4 μM
  expression of CD62-L: totally suppressed
[4]
  IC50: < 0.03 µM
  CD62-L expression (D): corresponding % of mycolactone activity (in brackets): 100%

## CC(=C\C=C\C(C)=C\[C@H](O)[C@@H](O)C[C@H](C)O)/C=C(C)/C=C/C(=O)O[C@H]1CCCC(=O)O[C@@H](C(C)C)C/C=C/C[C@@H]1C [Compound 22, (6S,7S,9E,12R)-7-methyl-2-oxo-12-(propan-2-yl)-1-oxacyclododec-9-en-6-yl(2E,4E,6E,8E,10E,12S,13S,15S)-12,13,15-trihydroxy-4,6,10-trimethylhexadeca-2,4,6,8,10-pentaenoate]
[1]
  activity against inflammatory pain (global score of pain, late phase 10-40 min): effective
[2]; 0.4 μM
  Cytokine production (M.A.: mean absorbance) (C) % relative to control: 15%
[2]; 4 μM
  Cytokine production (M.A.: mean absorbance) (C) % relative to control: 58%
[2]; 8 μM
  Cytokine production (M.A.: mean absorbance) (C) % relative to control: 95%
[2]; Homo sapiens
  IC50: 3 µM
[2]; at concentrations >4 μM
  reduction of IL-2 production: significant reduction
[2]
  Cytokine production (C): corresponding % of mycolactone activity (in brackets): 3.3%
[3]; 0.4 μM
  Metabolic activity (MA: mean absorbance) (A) % relative to control: 0%
[3]; 4 μM
  Metabolic activity (MA: mean absorbance) (A) % relative to control: 0%
[3]; 8 μM
  Metabolic activity (MA: mean absorbance) (A) % relative to control: 0%
[3]; at concentrations <16 μM
  cytopathic effect: no cytotoxic nor cytopathic effect
[4]; 4 μM
  CD62-L expression (MFI: mean fluorescence intensity) (D) % relative to control: 60%
[4]; 8 μM
  CD62-L expression (MFI: mean fluorescence intensity) (D) % relative to control: 70%
[4]; T-cell
  IC50: 3.7 µM
[4]; at concentrations >4 μM
  reduction of CD62-L expression: significant reduction
[4]
  CD62-L expression (D): corresponding % of mycolactone activity (in brackets): 0.8%
HeLa cell; at concentrations <16 μM
  cytotoxic effect: no cytotoxic nor cytopathic effect

## CC(=C/C=C/C(C)=C/[C@@H](O)[C@H](O)C[C@@H](C)O)C=C(C)/C=C/C(=O)O[C@H]1CCCC(=O)O[C@@H]([C@@H](C)C/C(C)=C/[C@@H](C)[C@H](O)C[C@@H](C)O)C/C=C/C[C@@H]1C (racemic) [Compound 20c, (6S,7S,9E,12R)-12-[(2 S,4E,6R,7R,9R)-7,9-dihydroxy-4,6-dimethyldec-4-en-2-yl]-7-methyl-2-oxo-1-oxacyclododec-9-en-6-yl(2E,4E,6E,8E,10E,12R,13R,15R)-12,13,15-trihydroxy-4,6,10-trimethylhexadeca-2,4,6,8,10-pentaenoate]
[2]; 0.4 μM
  Cytokine production (M.A.: mean absorbance) (C) % relative to control: 18%
[2]; 4 μM
  Cytokine production (M.A.: mean absorbance) (C) % relative to control: 35%
[2]; 8 μM
  Cytokine production (M.A.: mean absorbance) (C) % relative to control: 65%
[2]; Homo sapiens
  IC50: 6.5 µM
[2]
  Cytokine production (C): corresponding % of mycolactone activity (in brackets): 1.5%
[3]
  cytopathic activity compared to compound 20a: significantly reduced
  Metabolic activity (A): corresponding % of mycolactone activity (in brackets): < 20%
[3]; 0.4 μM
  Metabolic activity (MA: mean absorbance) (A) % relative to control: 0%
[3]; 4 μM
  Metabolic activity (MA: mean absorbance) (A) % relative to control: 20%
[3]; 8 μM
  Metabolic activity (MA: mean absorbance) (A) % relative to control: 25%
[3]; Homo sapiens
  IC50: > 16 µM
[4]; 4 μM
  CD62-L expression (MFI: mean fluorescence intensity) (D) % relative to control: 0%
[4]; 8 μM
  CD62-L expression (MFI: mean fluorescence intensity) (D) % relative to control: 10%
[4]; T-cell
  IC50: > 16 µM
[4]
  CD62-L expression (D): corresponding % of mycolactone activity (in brackets): < 0.2%
HeLa cell
  cytotoxic activity compared to compound 20a: significantly reduced

## CC(=C/C=C/C(C)=C/C[C@@H](O)CC(C)O)C=C(C)/C=C/C(=O)O[C@H]1CCCC(=O)O[C@@H]([C@@H](C)C/C(C)=C/[C@@H](C)[C@H](O)C[C@@H](C)O)C/C=C/C[C@@H]1C (stereo in doubt) [Compound 20d, (6S,7S,9E,12R)-12-[(2S,4E,6R,7R,9R)-7,9-dihydroxy-4,6-dimethyldec-4-en-2-yl]-7-methyl-2-oxo-1-oxacyclododec-9-en-6-yl(2E,4E,6E,8E,10E,13R,15R)-13,15-dihydroxy-4,6,10-trimethylhexadeca-2,4,6,8,10-pentaenoate]
[2]; 0.4 μM
  Cytokine production (M.A.: mean absorbance) (C) % relative to control: 12%
[2]; 4 μM
  Cytokine production (M.A.: mean absorbance) (C) % relative to control: 30%
[2]; 8 μM
  Cytokine production (M.A.: mean absorbance) (C) % relative to control: 55%
[2]; Homo sapiens
  IC50: 7.3 µM
[2]
  Cytokine production (C): corresponding % of mycolactone activity (in brackets): 1.4%
[3]
  cytopathic activity compared to compound 20a: significantly reduced
  Metabolic activity (A): corresponding % of mycolactone activity (in brackets): < 20%
[3]; 0.4 μM
  Metabolic activity (MA: mean absorbance) (A) % relative to control: 0%
[3]; 4 μM
  Metabolic activity (MA: mean absorbance) (A) % relative to control: 20%
[3]; 8 μM
  Metabolic activity (MA: mean absorbance) (A) % relative to control: 25%
[3]; Homo sapiens
  IC50: > 16 µM
[4]; 4 μM
  CD62-L expression (MFI: mean fluorescence intensity) (D) % relative to control: 0%
[4]; 8 μM
  CD62-L expression (MFI: mean fluorescence intensity) (D) % relative to control: 0%
HeLa cell
  cytotoxic activity compared to compound 20a: significantly reduced

Reference: patent US9598393B2, “Structural variants of mycolactones for use in modulating inflammation, immunity and pain” (priority 2011, dated 2017)
